Source: US6610883B1, “Compounds having selective activity for retinoid X receptors, and means for modulation of processes mediated by retinoid X receptors” (Ligand Pharmaceuticals, Inc., priority 1992, dated 2003)
Where two headings read alike, the source gives them in different places.

Assays:
Assay type in all cases: cell-based
[1] = biological target: T1, RARγ (Homo sapiens, UniProt P13631); assay: Co-transfection (cis-trans) assay in CV-1 cells, RARγ; set-up: expressed in transfected cells; host or cells: CV-1 (monkey kidney); details: for Emax at 10 µM: CV-1, maximal response relative to all-trans-retinoic acid at 10^−5 M, read-out: Efficacy; for EC50: CV-1 cells, luciferase reporter, 36 h, read-out: Potency
T1 sequence (P13631 1-454): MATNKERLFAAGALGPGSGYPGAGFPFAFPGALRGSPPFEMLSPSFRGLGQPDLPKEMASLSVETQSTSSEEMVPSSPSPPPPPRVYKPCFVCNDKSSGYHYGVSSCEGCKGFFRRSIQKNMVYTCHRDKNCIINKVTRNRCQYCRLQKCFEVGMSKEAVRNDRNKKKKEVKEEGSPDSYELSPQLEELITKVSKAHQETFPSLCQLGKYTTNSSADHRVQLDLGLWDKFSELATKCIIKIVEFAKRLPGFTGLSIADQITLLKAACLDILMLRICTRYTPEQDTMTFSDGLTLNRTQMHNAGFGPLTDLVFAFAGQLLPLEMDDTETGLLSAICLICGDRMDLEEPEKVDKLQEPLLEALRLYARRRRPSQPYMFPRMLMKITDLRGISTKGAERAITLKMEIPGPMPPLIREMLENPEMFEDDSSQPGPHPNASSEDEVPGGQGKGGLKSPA
From the text: (§1) The co-transfection assay provides a mechanism to evaluate the ability of a compound to modulate the transcription response initiated by an intracellular receptor. […] Berger, et al., J. Steroid Biochem Molec.
(§2) Briefly, the co-transfection assay involves the introduction of two plasmids by transient transfection into a retinoid receptor-negative mammalian cell background. The first plasmid contains a retinoid receptor cDNA and directs constitutive expression of the encoded receptor. The second plasmid contains a cDNA that encodes for a readily quantifiable protein, e.g., firefly luciferase or chloramphenicol acetyl transferase (CAT), under control of a promoter containing a retinoid acid response element, which confers retinoid dependence on the transcription of the reporter. In this co-transfection assay, all retinoid receptors respond to all-trans-retinoic acid in a similar fashion. This assay can be used to accurately measure efficacy and potency of retinoic acid and synthetic retinoids as ligands that interact with the individual retinoid receptor subtypes.
(§3) Accordingly, synthetic retinoid compounds of the current invention were evaluated for their interaction with retinoid receptor subtypes using the co-transfection assay in which CV-1 cells were co-transfected with one of the retinoid receptor subtypes, a reporter construct, and an internal control to allow normalization of the response for transfection efficiency. The following example is illustrative.
(§4) Retinoids: All-tans-retinoic acid (RA) and 13-cis-retinoic acid (13-cis-RA) were obtained from Sigma. […] Retinoids were dissolved in dimethylsulfoxide for use in the transcriptional activation assays.
(§5) Co-transfection Assay In CV-1 Cells: A monkey kidney cell line, CV-1, was used in the cis-trans assay. Cells were transfected with two plasmids. […] The cis-vector contains an easily assayable gene product, in this case the firefly luciferase, coupled to a retinoid-responsive promoter, i.e., an RARE or RXRE. Addition of retinoic acid or an appropriate synthetic retinoid results in the formation of a retinoid-RAR or -RXR complex that activates the expression of luciferase gene, causing light to be emitted from cell extracts. The level of luciferase activity is directly proportional to the effectiveness of the retinoid-receptor complex in activating gene expression. This sensitive and reproducible co-transfection approach permits the identification of retinoids that interact with the different receptor isoforms.
(§6) Cells were cultured in DMEM supplemented with 10% charcoal resin-stripped fetal bovine serum, and experiments were conducted in 96-well plates. […] Cells were transfected for 6 h and then washed to remove the precipitate. The cells were then incubated for 36 h with or without retinoid. After the transfection, all subsequent steps were performed on a Beckman Biomek Automated Workstation. […] All determinations were performed in triplicate in two independent experiments and were normalized for transfection efficiency by using β-galactosidase as the internal control. […] Efficacy values less than 5% are not statistically different than the 0% background.

[2] = biological target: T2, RXRγ (Mus musculus, UniProt P28705); assay: Co-transfection (cis-trans) assay in CV-1 cells, RXRγ; details: for Emax at 10 µM: CV-1, maximal response relative to all-trans-retinoic acid at 10^−5 M, read-out: Efficacy
T2 construct: expressed in transfected cells; host or cells: CV-1 (monkey kidney)
T2 sequence (P28705 1-463): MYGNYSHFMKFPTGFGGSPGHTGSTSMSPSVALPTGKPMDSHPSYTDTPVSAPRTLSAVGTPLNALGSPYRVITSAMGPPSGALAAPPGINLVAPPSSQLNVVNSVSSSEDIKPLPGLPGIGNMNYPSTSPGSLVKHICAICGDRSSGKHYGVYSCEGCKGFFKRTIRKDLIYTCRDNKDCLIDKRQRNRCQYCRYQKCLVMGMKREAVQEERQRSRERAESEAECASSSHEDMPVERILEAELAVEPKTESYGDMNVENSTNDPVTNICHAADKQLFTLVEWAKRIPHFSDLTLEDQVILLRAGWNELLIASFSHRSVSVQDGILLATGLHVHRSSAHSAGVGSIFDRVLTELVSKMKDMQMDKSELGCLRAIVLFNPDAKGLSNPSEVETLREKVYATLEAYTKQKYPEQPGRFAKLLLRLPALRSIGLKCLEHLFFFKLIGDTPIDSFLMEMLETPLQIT
From the text: as §1, §2, §3, §4, §5, §6

[3] = biological target: T3, RARβ (Homo sapiens, UniProt P10826); assay: Co-transfection (cis-trans) assay in CV-1 cells, RARβ; set-up: expressed in transfected cells; host or cells: CV-1 (monkey kidney); details: for Emax at 10 µM: CV-1, maximal response relative to all-trans-retinoic acid at 10^−5 M, read-out: Efficacy; for EC50: CV-1 cells, luciferase reporter, 36 h, read-out: Potency
T3 sequence (P10826 1-455): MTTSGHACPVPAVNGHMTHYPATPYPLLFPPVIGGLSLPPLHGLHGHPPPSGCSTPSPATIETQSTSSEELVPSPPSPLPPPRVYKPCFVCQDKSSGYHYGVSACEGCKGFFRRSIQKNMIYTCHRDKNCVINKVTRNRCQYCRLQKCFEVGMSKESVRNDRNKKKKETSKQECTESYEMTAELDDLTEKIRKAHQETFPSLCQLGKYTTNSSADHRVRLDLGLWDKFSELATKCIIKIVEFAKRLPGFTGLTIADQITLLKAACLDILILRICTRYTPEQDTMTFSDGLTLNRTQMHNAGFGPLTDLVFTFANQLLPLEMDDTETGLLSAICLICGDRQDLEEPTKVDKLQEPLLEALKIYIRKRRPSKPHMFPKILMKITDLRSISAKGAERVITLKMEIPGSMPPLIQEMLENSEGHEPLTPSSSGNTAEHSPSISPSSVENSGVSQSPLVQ
From the text: as §1, §2, §3, §4, §5, §6

[4] = RXRγ, CV-1 cells, luciferase reporter, 36 h, read-out: Potency

Row | SMILES | Emax at 10 µM [1] | EC50 [1] | Emax at 10 µM ([2]; RXRγ) | EC50 [2, 4] | Emax at 10 µM [3] | EC50 [3] | EC50 [2]
1 | CC1=C(/C=C/C(=C\C=C\C(C)=C\C(=O)O)C(C)C)C(C)(C)CCC1 [Compound 75, 3-methyl-7-isopropyl-9-(2,6,6-trimethyl-1-cyclohexen-1-yl)-2E,4E,6Z,8E-nonatetranoic acid] | 119% | 150 nM | 106% | 11 nM | 58% | 180 nM | 
2 | CC1=C(/C=C/C(=C\C=C\C(C)=C\C(=O)O)C(C)(C)C)C(C)(C)CCC1 [Compound 77, 3-methyl-7-t-butyl-9-(2,6,6-trimethyl-1-cyclohexen-1-yl)-2E,4E,6Z,8E-nonatetranoic acid] | 44% | 170 nM | 71% | 9 nM | 63% | 140 nM | 
3 | CC(/C=C/C=C(\c1ccc2c(c1)C(C)(C)CCC2(C)C)C(C)C)=C\C(=O)O [Compound 123, (2E,4E,6Z)-7-(5,5,8,8-tetramethyl-5,6,7,8-tetrahydro-2-naphthyl)-3,8-dimethyl-nona-2,4,6-trienoic acid] | 49% | 283 nM | 97% | 24 nM | 55% | 75 nM | 
4 | Cc1cc2c(cc1C(=O)c1ccc(C(=O)Nc3ccc(O)cc3)cc1)C(C)(C)CCC2(C)C [3-Methyl-TTNCHBP, 4-[(3,5,5,8,8-pentamethyl-5,6,7,8-tetrahydro-2-naphthyl)carbonyl]-N-(4-hydroxyphenyl)benzamide] | 17% | > 10000 nM | 128% | 300 nM | 7% | > 10000 nM | 
5 | CCCC(=C/C=C/C(C)=C/C(=O)O)/C=C/C1=C(C)CCCC1(C)C [Compound 74, 3-methyl-7-propyl-9-(2,6,6-trimethyl-1-cyclohexen-1-yl)-2E,4E,6Z,8E-nonatetranoic acid] | 61% | 37 nM | 85% | 12 nM | 50% | 38 nM | 
6 | CC1=C(/C=C/C2(C/C=C/C(C)=C/C(=O)O)CC2)C(C)(C)CCC1 [Compound 110] | 37% | 1770 nM | 87% | 198 nM | 29% | 446 nM | 
7 | C=C(c1ccc(C(=O)Nc2ccc(O)cc2)cc1)c1cc2c(cc1C)C(C)(C)CCC2(C)C [3-Methyl-TTNEHBP (63), 4-[1-(3,5,5,8,8-pentamethyl-5,6,7,8-tetrahydro-2-naphthyl)ethenyl]-N-(4-hydroxyphenyl)benzamide] | 10% | > 10000 nM | 163% | 48 nM | 25% | 1900 nM | 
8 | CC(/C=C/C1(c2cc3c(cc2C)C(C)(C)CCC3(C)C)CC1)=C\C(=O)O [Compound 104, (2E,4E)-3-methyl-5-[1-(3,5,5,8,8-pentamethyl-5,6,7,8-tetrahydro-2-naphthyl)cyclopropyl]penta-2,4-dienoic acid] | 28% | 144 nM | 85% | 7 nM | 5% | > 10000 nM | 
9 | C/C(=C/C=C/C(C)=C/C(=O)O)c1cc2c(cc1C)C(C)(C)CCC2(C)C [Compound 128, (2E,4E,6Z)-7-(3,5,5,8,8-pentamethyl-5,6,7,8-tetrahydro-2-naphthyl)-3-methyl-octa-2,4,6-trienoic acid] | 37% | 309 nM | 115% | 10 nM | 40% | 180 nM | 
10 | C=C(c1ccc(C(=O)O)cc1)c1cc2c(cc1Br)C(C)(C)CCC2(C)C [3-Bromo-TTNEB, 4-[1-(3-bromo-5,5,8,8-tetramethyl-5,6,7,8-tetrahydro-2-naphthyl)ethenyl]benzoic acid] | 15% |  |  |  | 18% |  | 52 nM
11 | CC1=C(C=CC2CCCCC2/C=C/C(C)=C/C(=O)O)C(C)(C)CCC1 (stereo not drawn) [Compound 100, 3-methyl-5-(2-[2-(2,6,6-trimethylcyclohexen-1-yl)ethenyl]cyclohexyl)-2E,4E-pentadienoic acid] | 4% | > 10000 nM | 72% | 106 nM | 5% | > 10000 nM | 
